Test results from ChEMBL document CHEMBL6153054, “Synthesis and discovery of simplified pleurotin analogs bearing tricyclic core as novel thioredoxin reductase inhibitors” (Eur J Med Chem, 2025).
Activity calls are given as the source filed them. The rule behind the calls is not given here.

Assays:
HepG2 [1] = assay: Antiproliferative activity against human HepG2 cells assessed as reduction in cell growth after 72 hrs by MTT assay; assay type: functional, cell-based; details: HepG2, 72 h
MCF7 = assay: Antiproliferative activity against human MCF7 cells assessed as reduction in cell growth after 72 hrs by MTT assay; assay type: functional, cell-based; details: MCF7, 72 h
Homo sapiens [2] = organism: Homo sapiens; assay: Inhibition of TrxR (unknown origin) at 5 uM by […]-reagent based assay relative to control
HepG2 [3] = assay: Induction of apoptosis in human HepG2 cells assessed as early apoptotic cells incubated for 24 hrs by Annexin V/PI staining based flow cytometry analysis; assay type: functional, cell-based; details: dose 12.5-50 µM
HepG2 [4] = assay: Induction of apoptosis in human HepG2 cells assessed as necrotic cells at 25 uM incubated for 24 hrs by Annexin V/PI staining based flow cytometry analysis (reference value: 0.21%); assay type: functional
HepG2 [5] = assay: Induction of apoptosis in human HepG2 cells assessed as late apoptotic cells at 12.5 uM incubated for 24 hrs by Annexin V/PI staining based flow cytometry analysis (reference value: 1.30%); assay type: functional
HepG2 [6] = assay: Induction of apoptosis in human HepG2 cells assessed as viable cells at 25 uM incubated for 24 hrs by Annexin V/PI staining based flow cytometry analysis (reference value: 94.9%); assay type: functional; details: read-out: Activity
HepG2 [7] = assay: Induction of intracellular ROS generation in human HepG2 cells assessed as increase in red fluorescence at 6.25 to 12.5 uM incubated for 6 hrs by DHE probe based fluorescence microscopic analysis; assay type: functional, cell-based; details: dose 6.25-12.5 µM
HepG2 [8] = assay: Induction of apoptosis in human HepG2 cells assessed as necrotic cells at 12.5 uM incubated for 24 hrs by Annexin V/PI staining based flow cytometry analysis (reference value: 0.21%); assay type: functional
HepG2 [9] = assay: Induction of apoptosis in human HepG2 cells assessed as viable cells at 12.5 uM incubated for 24 hrs by Annexin V/PI staining based flow cytometry analysis (reference value: 94.9%); assay type: functional; details: read-out: Activity
HepG2 [10] = assay: Induction of apoptosis in human HepG2 cells assessed as early apoptotic cells at 50 uM incubated for 24 hrs by Annexin V/PI staining based flow cytometry analysis (reference value: 3.64%); assay type: functional
HepG2 [11] = assay: Induction of apoptosis in human HepG2 cells assessed as necrotic cells at 50 uM incubated for 24 hrs by Annexin V/PI staining based flow cytometry analysis (reference value: 0.21%); assay type: functional
HepG2 [12] = assay: Induction of apoptosis in human HepG2 cells assessed as early apoptotic cells at 25 uM incubated for 24 hrs by Annexin V/PI staining based flow cytometry analysis (reference value: 3.64%); assay type: functional
HepG2 [13] = assay: Induction of apoptosis in human HepG2 cells assessed as late apoptotic cells at 25 uM incubated for 24 hrs by Annexin V/PI staining based flow cytometry analysis (reference value: 1.30%); assay type: functional
[14] = Inhibition of TrxR (unknown origin) by […]-reagent based assay; set-up: species or system Homo sapiens
HepG2 [15] = assay: Inhibition of TrxR in human HepG2 cells incubated for 24 hrs by immunofluorescence assay; assay type: cell-based; details: dose 12.5-50 µM
Homo sapiens [16] = organism: Homo sapiens; assay: Inhibition of TrxR (unknown origin) at 8 uM by […]-reagent based assay relative to control
HepG2 [17] = assay: Induction of apoptosis in human HepG2 cells assessed as viable cells at 50 uM incubated for 24 hrs by Annexin V/PI staining based flow cytometry analysis (reference value: 94.9%); assay type: functional; details: read-out: Activity
HepG2 [18] = assay: Induction of intracellular ROS generation in human HepG2 cells assessed as increase in green fluorescence at 6.25 to 12.5 uM incubated for 6 hrs by DCFH-DA probe based fluorescence microscopic analysis; assay type: functional, cell-based; details: dose 6.25-12.5 µM
HepG2 [19] = assay: Induction of apoptosis in human HepG2 cells assessed as late apoptotic cells at 50 uM incubated for 24 hrs by Annexin V/PI staining based flow cytometry analysis (reference value: 1.30%); assay type: functional
HepG2 [20] = assay: Induction of intracellular ROS generation in human HepG2 cells at 6.25 uM incubated for 3 to 12 hrs by DCFH-DA probe based fluorescence microscopic analysis; assay type: functional, cell-based; details: time 3-12 hrs
HepG2 [21] = assay: Induction of apoptosis in human HepG2 cells assessed as late apoptotic cells incubated for 24 hrs by Annexin V/PI staining based flow cytometry analysis; assay type: functional, cell-based; details: dose 12.5-50 µM
HepG2 [22] = assay: Inhibition of TrxR in human HepG2 cells assessed as decrease in green fluorescence at 12.5 to 50 uM incubated for 24 hrs by immunofluorescence assay; assay type: cell-based; details: dose 12.5-50 µM
HepG2 [23] = assay: Induction of apoptosis in human HepG2 cells assessed as early apoptotic cells at 12.5 uM incubated for 24 hrs by Annexin V/PI staining based flow cytometry analysis (reference value: 3.64%); assay type: functional
[24] = Inhibition of TrxR (unknown origin); set-up: species or system Homo sapiens
[25] = Inhibition of TrxR in human SGC-7901 cells; assay type: cell-based

Q: Which results are given for `C[C@@]12CCC[C@@H](C(=O)O)[C@@H]1CC1=C(C2)C(=O)C=CC1=O`?
A: IC50 (HepG2 [1]): 27.8 µM; IC50 (MCF7): 43.3 µM; inhibition (Homo sapiens [2]): 21.6%

Q: For `C[C@@]12CCC[C@](O)(c3ccc(C#N)cc3)[C@@H]1CC1=C(C2)C(=O)C=CC1=O`, which Activity (HepG2 [3]) is on record?
A: Dose-dependent-effect

Q: What about the Activity (HepG2 [4]) of the same compound?
A: 1.39%

Q: And the Activity (HepG2 [5])?
A: 1.82%

Q: And the viability at 25 µM (HepG2 [6])?
A: 81.3%

Q: And the IC50 (HepG2 [1])?
A: 19.4 µM

Q: What about the Activity (HepG2 [7]) of the same compound?
A: Active

Q: What about the Activity (HepG2 [8]) of the same compound?
A: 0.3%

Q: And the viability at 12.5 µM (HepG2 [9])?
A: 92.2%

Q: What about the Activity (HepG2 [10]) of the same compound?
A: 22.7%

Q: And the Activity (HepG2 [11])?
A: 10.7%

Q: And the Activity (HepG2 [12])?
A: 13.9%

Q: What about the IC50 (MCF7) of the same compound?
A: 28.2 µM

Q: And the Activity (HepG2 [13])?
A: 3.39%

Q: And the IC50 [14]?
A: 3.5 µM

Q: What about the inhibition (HepG2 [15]) of the same compound?
A: Dose-dependent-effect

Q: And the inhibition (Homo sapiens [16])?
A: 100%

Q: And the viability at 50 µM (HepG2 [17])?
A: 54%

Q: What about the Activity (HepG2 [18]) of the same compound?
A: Active

Q: And the Activity (HepG2 [19])?
A: 12.6%

Q: What about the Activity (HepG2 [20]) of the same compound?
A: Active

Q: What about the Activity (HepG2 [21]) of the same compound?
A: Dose-dependent-effect

Q: What about the inhibition (Homo sapiens [2]) of the same compound?
A: 71.9%

Q: And the inhibition (HepG2 [22])?
A: Active

Q: And the Activity (HepG2 [23])?
A: 5.54%

Q: What does the source list for `C=CC(=O)O[C@@H]1CCC[C@@]2(C)CC3=C(C[C@@H]12)C(=O)C=CC3=O`?
A: IC50 (HepG2 [1]): 59.6 µM; IC50 (MCF7): 16.4 µM; inhibition (Homo sapiens [2]): 19.7%

Q: For `C[C@H]1CO[C@H]2C3=C(C(=O)C=CC3=O)[C@@H]3OC(=O)[C@H]4CC[C@@H]5[C@H]1CC[C@@]52[C@@H]43`, which IC50 (HepG2 [1]) is on record?
A: 55 µM

Q: What about the IC50 [24] of the same compound?
A: 0.17 µM

Q: And the IC50 (MCF7)?
A: > 100 µM

Q: Which IC50 (HepG2 [1]) does the source give for `C[C@@]12CCC[C@@H](CO)[C@@H]1CC1=C(C2)C(=O)C=CC1=O` here?
A: 71.7 µM

Q: What about the IC50 (MCF7) of the same compound?
A: 43.7 µM

Q: And the inhibition (Homo sapiens [2])?
A: 13.7%

Q: Which IC50 (HepG2 [1]) does the source give for `C[C@@]12CCC[C@](O)(c3ccccc3)[C@@H]1CC1=C(C2)C(=O)C=CC1=O` here?
A: 34 µM

Q: What about the IC50 (MCF7) of the same compound?
A: 24.2 µM

Q: And the inhibition (Homo sapiens [2])?
A: 19.6%

Q: What does the source list for `CCc1ccc([C@@]2(O)CCC[C@@]3(C)CC4=C(C[C@H]32)C(=O)C=CC4=O)cc1`?
A: IC50 (HepG2 [1]): 46.5 µM; IC50 (MCF7): 19.6 µM; inhibition (Homo sapiens [2]): 19.6%

Q: For `COc1ccccc1/C=C/C(=O)/C=C/c1ccccc1OC`, which IC50 [25] is on record?
A: ~50 µM

Q: For `C[C@@]12CCCC(=O)[C@@H]1[C@H](O)C1=C(C2)C(=O)C=CC1=O`, which IC50 (HepG2 [1]) is on record?
A: 48.5 µM

Q: What about the IC50 (MCF7) of the same compound?
A: 32.4 µM

Q: What about the inhibition (Homo sapiens [2]) of the same compound?
A: 60.4%

Q: Which IC50 (HepG2 [1]) does the source give for `C[C@@]12CCC[C@](O)(c3ccccn3)[C@@H]1CC1=C(C2)C(=O)C=CC1=O` here?
A: 45.3 µM

Q: And the IC50 (MCF7)?
A: 28.8 µM

Q: And the inhibition (Homo sapiens [2])?
A: 23.5%

Q: With `C[C@@]12CCCC(=O)[C@@H]1CC1=C(C2)C(=O)C=CC1=O` as the compound, how does the IC50 (HepG2 [1]) read?
A: 62.6 µM

Q: What about the IC50 (MCF7) of the same compound?
A: 30.7 µM

Q: What about the inhibition (Homo sapiens [2]) of the same compound?
A: 18.5%

Q: With `C=C1C(=O)O[C@H]2[C@H]1CCC(C)=C1CC[C@@](C)(O)[C@@H]12` [MICHELIOLIDE] as the compound, how does the IC50 (HepG2 [1]) read?
A: 10.9 µM

Q: What about the IC50 [24] of the same compound?
A: 6.23 µM

Q: And the IC50 (MCF7)?
A: 23.4 µM

Q: What about the IC50 [14] of the same compound?
A: 6.23 µM

Q: And the inhibition (Homo sapiens [2])?
A: 34.2%

Q: What does the source list for `Cc1ccc([C@@]2(O)CCC[C@@]3(C)CC4=C(C[C@H]32)C(=O)C=CC4=O)cc1`?
A: IC50 (HepG2 [1]): > 100 µM; IC50 (MCF7): 36.9 µM; inhibition (Homo sapiens [2]): 11.8%

Q: What does the source list for `C[C@@]12CCC[C@](O)(c3ccoc3)[C@@H]1CC1=C(C2)C(=O)C=CC1=O`?
A: IC50 (HepG2 [1]): > 100 µM; IC50 (MCF7): > 100 µM

Q: What does the source list for `C[C@@]12CCC[C@](O)(c3ccc(C(F)(F)F)cc3)[C@@H]1CC1=C(C2)C(=O)C=CC1=O`?
A: IC50 (HepG2 [1]): 69.5 µM; IC50 (MCF7): 13.6 µM; inhibition (Homo sapiens [2]): 15.7%

Q: Which IC50 (HepG2 [1]) does the source give for `C=C1CCC[C@@]2(C)CC3=C(C[C@@H]12)C(=O)C=CC3=O` [CORDIACHROME B] here?
A: > 100 µM

Q: And the IC50 (MCF7)?
A: 59.3 µM

Q: What about the inhibition (Homo sapiens [2]) of the same compound?
A: 19.6%

Q: What does the source list for `COc1ccc([C@@]2(O)CCC[C@@]3(C)CC4=C(C[C@H]32)C(=O)C=CC4=O)cc1`?
A: IC50 (HepG2 [1]): > 100 µM; IC50 (MCF7): 17.4 µM; inhibition (Homo sapiens [2]): 9.8%

Q: What does the source list for `C[C@@]12CCC[C@@H](O)[C@@H]1CC1=C(C2)C(=O)C=CC1=O`?
A: IC50 (HepG2 [1]): 36.6 µM; IC50 (MCF7): 15.6 µM; inhibition (Homo sapiens [2]): 34.9%

Q: For `C=CC(=O)O[C@@H]1C2=C(C[C@]3(C)CCCC(=O)[C@H]13)C(=O)C=CC2=O`, which IC50 (HepG2 [1]) is on record?
A: > 100 µM

Q: And the IC50 (MCF7)?
A: > 100 µM
